Columns and labels:
[1] = molecular target: glutathionylspermidine synthetase (GspS); assay: Kinetic analysis of GspS by HPLC determination of the product Gsp; assay type: biochemical, C. fasciculata; settings: 25.0° C.; for Ki: pH 7.5; for Km: substrates of GspS, rapid equilibrium random-order mechanism, pH 7.5, 5 mM magnesium, read-out: limiting Km (dissociation constant of the quarternary complex)
Procedure: Production of starting material: C. fasciculata was grown in a medium previously described (27) in a 100-1 fermenter at 27° C. with continuous stirring (200 rpm) and aeration (0.1 vvm). Organisms were harvested in the late logarithmic growth phase by continous flow centrifugation. The pellet was resuspended with 100 mM HEPES buffer (pH 7.5) containing 1 mM DTT and 1 mM MgSO4. After centrifugation the cells were stored at −20° C. GspS, Assay: The assays were carried out at 25.0° C. in a volume of 0.9 ml containing 50 mM Bis-Tris-propane, 50 mM Tris, pH 7.5, 5 mM MgSO4, 1 mM EDTA, 5 mM DTT, 5 mM ATP, 10 mM GSH, and 10 mM spermidine (1). The assay for TS was carried out as described by Smith et al. (1). Aliquots were taken after 20 min. For thiol analysis a precolumn derivatization with the fluorescent thiol-specific reagent, monobromobimane (Calbiochem), was used as described previously (2). All samples for HPLC analysis were diluted four-fold with water. Separation and analytical conditions were as described previously (28). HPLC-analysis was performed with a Jasco-HPLC-system consisting of an autosampler (851-AS), a pump (PU-980), a ternary gradient unit (LG-980-02), and a highly sensitive fluorescence detector (FP-920), which enabled a precise analysis of the small product peak in the presence of numerous other and larger ones. An external standard (0.04 mM Gsp) was used for integration calibration of the samples.
All kinetic experiments were carried out at 25.0° C. in a volume of 0.9 ml containing 50 mM Bis-Tris-propane, 50 mM Tris, pH 7.5, 1 mM EDTA, 5 mM DTT and variable concentrations of ATP (0.10, 0.13, 0.18, 0.28, 0.66 mM ATP), GSH (0.36, 0.47, 0.66, 1.11, 3.57 mM GSH), and spermidine (0.36, 0.47, 0.66, 1.11, 3.57 mM spermidine), respectively. The enzymatic tests for kinetic studies except the ADP inhibition studies were performed in the presence of phosphoenolpyruvate (10 mM) and pyruvate kinase (0.5 units). A fixed magnesium concentration of 5 mM and a GspS content of 0.072 mg (0.923 μM) was used. Aliquots were taken at 15 min and 30 min. GspS activity was analyzed by product determination as described in example 1.

[2] = tested on: glutathionylspermidine synthetase (GspS); assay: Malachite green colorimetric assay for liberation of inorganic phosphate; assay type: biochemical, C. fasciculata; settings: ADP 0-10 mM at ATP 0.2-5 mM; competitive with respect to ATP
Procedure: FIG. 9. Malachite green colorimetric assay for liberation of inorganic phosphate. The malachite green calorimetric assay for liberation of inorganic phosphate (1) was used for fast detection of GspS activity.
The standard assay was carried out at 25.0° C. in a volume of 0.15 ml containing 50 mM Bis-Tris-propane, 50 mM Tris, pH 7.5, 5 mM MgSO4, 1 mM EDTA, 5 mM DTT, 5 mM ATP, 10 mM GSH, 10 mM spermidine, and GspS. After an incubation of 10 min the malachite green reagent was added for detection of GspS activity.
Concentration of ATP (see heading) and ADP (see table).
The liberation of inorganic phosphate from ATP can be easily visualized by malachite green (FIG. 9). The test is amply used to monitor ATP hydrolyzing activities and is correspondingly unspecific. […] This finding enabled us to use this fast and convenient test to measure specifically GspS activity which is accompanied by release of inorganic phosphate from ATP in the presence of glutathione, spermidine, and magnesium ions. The test can be easily adapted to mass screening as outlined below.

| Molecule | Km [1] [µM] | further results |
| --- | --- | --- |
| N[C@@H](CCC(=O)N[C@@H](CS)C(=O)NCC(=O)NCCCCNCCCNC(=O)CNC(=O)[C@H](CS)NC(=O)CC[C@H](N)C(=O)O)C(=O)O [TSH, N^1, N^8-bis(glutathionyl)spermidine] | – | Ki ([1]; feed-back inhibition of GspS, competed by GSH): 480 µM |
| NCCCCNCCCN [spermidine] | 470 ± 90 | – |
| N[C@@H](CCC(=O)N[C@@H](CS)C(=O)NCC(=O)O)C(=O)O [GSH, glutathione] | 2510 ± 330 | – |
| adenosyltriphosphate [Mg^2+-ATP] | 250 ± 20 | – |
| Nc1ncnc2c1ncn2[C@@H]1O[C@H](COP(=O)(O)OP(=O)(O)O)[C@@H](O)[C@H]1O [ADP] | – | Ki ([1]; inhibition of GspS, competitive with respect to ATP, no ATP regenerating system): 80 µM; inhibition of GspS [2]: significantly inhibits |

From patent US20020155562A1, “Glutathionylspermidine synthetase and processes for recovery and use thereof” (Leopold Flohe, priority 1996, published 2002)
